In patent US20080152644A1, “Genes Involved in Neurodegenerative Conditions” (priority 2005, published 2008):

Columns and labels:
Type in all cases: in vivo, Drosophila
A-beta42 = test: Sandwich ELISA of A-beta42 extracted from heads of transgenic flies fed RAD001; conditions: FIG. 8
Description: Antibodies: Mouse monoclonal antibody directed to the NH2 terminus of the A-beta peptide was used as the capture antibody (Biosource Cat#44-352-100). The antibody was diluted in 1×PBS 1:2900 (3.5 μl/10 ml) and applied to Maxisorb Plates (Nunc Cat#442404) and 100 ul/96 well or 50 μl/384 well by incubating overnight at 4C. Polyclonal detection antibodies were obtained from Biosource (anti-hA-beta40 Cat#44-348 and anti-hA-beta42 Cat#44-344) and diluted 1/2000 in 1% BSA/PBS […]. The tertiary antibody (Santa Cruz Cat# SC2313) was a horseradish peroxidase labeled anti-rabbit IgG (Diluted 1/5000 in 1% BSA/PBS).
Preparation of the A-beta standards: 2.31 g of sodium bicarbonate was dissolved in 500 mL of distilled water and the pH was adjusted to 9.0 with 2N sodium hydroxide. […]
Indirect Two Sandwich ELISA: After the overnight incubation with capture antibody the plates were washed twice on a microplate washer (Bioteck Instruments, Inc) in 1×PBS/0.05% Tween 20/1 mM EDTA). […] The plates were read on a microplate reader at […] (Molecular Devices, Inc.) within one hour.
The amount of A-beta42 from the heads of aged flies expressing A-beta42 was measured to see whether inactivation or reduced activation of Tor function affects the amount of A-beta42, such that it would correlate with the amelioration of A-beta42 induced toxicity. […]

[1] = tested on: transgenic flies expressing A-beta42; test: Lifespan of transgenic flies expressing A-beta42 fed RAD001; conditions: fed every three days with 10, 20, 30 and 60 uM RAD001; effect seen even at the lowest concentration; FIG. 7
Description: Flies were maintained in corn meal based standard fly food (Ashburner, 1989). Parental crosses were set up at 25° C. and F1 progeny was collected and raised at 29° C. (FIG. 1). Flies are crossed and maintained at 25° C. according to conventional methods except that all progeny are kept at 29° C. for maximal expression of phenotypes. In the binary Gal4 expression system, this temperature maximizes activity of the Gal4 protein. In the case of ElavGal4C^155/UAS-A-beta42, it is observed that the phenotype is stronger at 29° C., so these flies are kept at this temperature as well.
For 2nd and 3rd chromosome P-element strains, crosses were set using male flies (about 10) from the P-element strain and virgin females (about 10) from the A-beta42 over-expressing strain (ElavGal4C^155/UAS-A-beta42). For X-chromosome P strains, about 10 virgin females were collected from individual P strains and mated with 10 males from the A-beta over-expressing strain. […] 10 vials with 20 progeny from each cross were kept at 29° C. and scored for viability and behavior phenotypes as well as for general morphological changes. For scoring, live flies were transferred to fresh vials and the dead flies were counted every 2-3 days. […]
If successful, this treatment would provide the same beneficiary effect on A-beta42 induced toxicity found through genetic modification. […] Lifespan was scored until all the RAD001 fed flies died. […]

[2] = tested on: transgenic flies expressing A-beta42; test: Climbing assay (locomotor activity) of RAD001 fed flies expressing A-beta42; conditions: RAD001 fed flies at 21 day, compared to placebo fed flies; data not shown
Excerpt: For the locomotion assay, 20 flies of each experimental genotype were scored at 3, 10 and 15 days of age. Flies were transferred to fresh vials, tapped down and recorded for a few minutes until their climbing came to an equilibrium.
In order to analyze locomotion activity, we used a “climbing assay” (Le Bourg E, Lints F A. (1992). Hypergravity and aging in Drosophila melanogaster. 4. Climbing activity. Gerontology. 38:59-64), which measures the negative geotropic response that flies naturally display. Groups of flies at different stages of adult life (3, 10, 15 days) from experimental and control groups were assayed. […] Three different UAS-A-beta42 strains were used, expressing different amounts of A-beta42 peptide (A-beta42^H29.3, A-beta42^HJ2.12, A-beta42^HJ2.19). Strains A-beta42^HJ2.12 and A-beta42^HJ2.19 express higher levels of the peptide than strain A-beta42^H29.3.
If successful, this treatment would provide the same beneficiary effect on A-beta42 induced toxicity found through genetic modification. Flies expressing A-beta42 were fed every three days with 10 uM, 20 uM, 30 uM and 60 uM (where uM=10^−6 M) concentration of RAD001. Lifespan was scored until all the RAD001 fed flies died. The climbing assay was performed on RAD001 fed flies at 21 day, and compared to placebo fed flies.

SMILES: CO[C@H]1C[C@@H]2CC[C@@H](C)[C@@](O)(O2)C(=O)C(=O)N2CCCC[C@H]2C(=O)O[C@H]([C@H](C)C[C@@H]2CC[C@@H](OCCO)[C@H](OC)C2)CC(=O)[C@H](C)/C=C(\C)[C@@H](O)[C@@H](OC)C(=O)[C@H](C)C[C@H](C)/C=C/C=C/C=C/1C [RAD001]
- total A-beta42 (A-beta42; flies dosed with 60 uM RAD001, heads of 13 day old flies): pronounced decrease
- reduction of the amount of soluble A-beta42 (A-beta42; heads of 13 day old flies fed 10-60 uM RAD001 every three days, normalized to total protein, vs placebo): up to 42%
- lifespan of flies expressing A-beta42 [1]: partial rescue of lifespan
- locomotor defect (climbing assay) [2]: partially abrogated
